Experiments:
[1] = target: T1, ScRIB7 (Saccharomyces cerevisiae, UniProt P33312, T79A); test: isothermal titration calorimetry; type: binding; settings: 80 µM protein titrated with 800 µM NADPH in PBS
T1 construct: gene RIB7; recombinant in E. coli BL21(DE3), pGEX6p-1, GST tag removed with PreScission protease; homodimer, ~43 kDa by sedimentation
T1 sequence (P33312 1-244 T79A): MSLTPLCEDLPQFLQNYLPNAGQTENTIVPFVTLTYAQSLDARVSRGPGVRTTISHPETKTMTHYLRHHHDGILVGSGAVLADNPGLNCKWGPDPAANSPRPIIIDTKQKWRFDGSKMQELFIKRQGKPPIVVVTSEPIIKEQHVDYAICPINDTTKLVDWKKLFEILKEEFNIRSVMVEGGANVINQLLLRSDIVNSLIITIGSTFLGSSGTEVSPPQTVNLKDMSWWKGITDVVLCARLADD

[2] = target: T2, ScRIB7 (Saccharomyces cerevisiae, UniProt P33312, D83A); test: isothermal titration calorimetry; type: binding; settings: 80 µM protein titrated with 800 µM NADPH in PBS
T2 construct: gene RIB7; recombinant in E. coli BL21(DE3), pGEX6p-1, GST tag removed with PreScission protease; homodimer, ~43 kDa by sedimentation
T2 sequence (P33312 1-244 D83A): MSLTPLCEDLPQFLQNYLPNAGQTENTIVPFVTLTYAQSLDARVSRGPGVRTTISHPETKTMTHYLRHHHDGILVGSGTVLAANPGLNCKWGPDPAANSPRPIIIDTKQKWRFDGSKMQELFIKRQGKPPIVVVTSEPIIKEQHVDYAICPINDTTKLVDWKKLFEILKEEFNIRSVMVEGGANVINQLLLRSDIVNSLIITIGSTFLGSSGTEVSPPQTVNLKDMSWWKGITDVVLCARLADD

[3] = target: T3, ScRIB7 (Saccharomyces cerevisiae, UniProt P33312); test: isothermal titration calorimetry; type: binding; settings: 80 µM protein titrated with 800 µM NADPH in PBS; crystal structure of the complex (2.35 Å) also solved
T3 construct: gene RIB7; recombinant in E. coli BL21(DE3), pGEX6p-1, GST tag removed with PreScission protease; homodimer, ~43 kDa by sedimentation
T3 sequence (P33312 1-244): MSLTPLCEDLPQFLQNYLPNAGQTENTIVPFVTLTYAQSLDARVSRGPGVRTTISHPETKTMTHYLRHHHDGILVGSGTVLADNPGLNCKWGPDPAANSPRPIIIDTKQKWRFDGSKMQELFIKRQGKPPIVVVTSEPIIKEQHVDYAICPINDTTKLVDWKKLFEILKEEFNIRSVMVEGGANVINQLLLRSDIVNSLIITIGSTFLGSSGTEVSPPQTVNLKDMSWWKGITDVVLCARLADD

[4] = target: the molecule itself; test: SEC; gel filtration, data not shown; conditions of this run not told

For `NC(=O)C1=CN([C@@H]2O[C@H](COP(=O)(O)OP(=O)(O)OC[C@H]3O[C@@H](n4cnc5c(N)ncnc54)[C@H](OP(=O)(O)O)[C@@H]3O)[C@@H](O)[C@H]2O)C=CC1` [NADPH], the “no interaction heat detected” value [1] was “no interaction heat was detected for the T79A mutant”, the binding constant [2] was “The binding constant of the D83A mutant with NADPH was similar to that of the wild type” and the binding constant [3] was “Interactions between enzymes and NADPH were detected by isothermal titration calorimetry using nano-ITC2g”.

B1: Saccharomyces cerevisiae RIB7 (enzyme)
chain: MSLTPLCEDLPQFLQNYLPNAGQTENTIVPFVTLTYAQSLDARVSRGPGVRTTISHPETKTMTHYLRHHHDGILVGSGTVLADNPGLNCKWGPDPAANSPRPIIIDTKQKWRFDGSKMQELFIKRQGKPPIVVVTSEPIIKEQHVDYAICPINDTTKLVDWKKLFEILKEEFNIRSVMVEGGANVINQLLLRSDIVNSLIITIGSTFLGSSGTEVSPPQTVNLKDMSWWKGITDVVLCARLADD
notes: RIB7, riboflavin biosynthesis reductase of Saccharomyces cerevisiae; RIB7 gene amplified from genomic DNA and cloned BamHI/XhoI into pGEX6p-1; Wild type; A seleno-methionine derivative was used only for phasing; Residues left by the PreScission site after cleavage are not described; also called ScRIB7; riboflavin biosynthesis reductase RIB7; source: E. coli BL21 (DE3), purified …
For B1, the “stoichiometry N” value [4] was 2.
